# Measurements published in patent publication US11242406B2, “Methods for the treatment of a cancer or fibrotic disorder associated with MENA or MENA(INV) by administering a map kinase inhibitor” (METASTAT, INC., priority 2016, dated 2022).
# Legend:
# MVD7-MENA^INV cells = assay: Fibronectin fibrillogenesis assay; type: cell-based, mouse; details: for MENA-dependent fibronectin fibrillogenesis phenotype compared to the MENA-null control: FIG. 8
# Experimental: MENA kinase inhibitors reversed MENA-dependent fibrillogenesis. The ability of the various MENA kinase inhibitors described above to reverse MENA-dependent fibrillogenesis was evaluated in fibronectin fibrillogenesis assays using the […] cell line. Cells were pretreated with MENA kinase inhibitor for 1 hour at the concentrations indicated in FIG. 8 and cultured in medium containing fibronectin-depleted serum supplemented with labeled fibronectin. After 4 hours, fibronectin fibril formation was evaluated by quantitative immunostaining using imageJ software to measure abundance and distribution of fibrillar fibronectin (anova, n=3). The results are plotted relative to control MVD7-GFP cells in FIG. 8.
# [1] = test system: MDA-MB-231-MENA^INV cells; assay: Boyden Chamber cell migration and chemotaxis assay; type: cell-based, human; details: 18 hours
# Experimental: MENA kinase inhibitors reverse MENA-dependent cell migration and chemotaxis in the Boyden Chamber Assay. […] The fibronectin coated upper chamber were then transferred to wells containing basal media (negative controls) and wells containing basal media, EGF, and MENA kinase inhibitors at the concentrations indicated in FIG. 11. All treatment conditions except the basal negative control used EGF as the chemoattractant. After 18 hours, cells that migrated through the pores toward the chemotattractant were evaluated by quantitative immunostaining using imageJ software as described above. Data were analyzed using anova (n=2) and reported relative to the EGF stimulated cells absent any inhibitor positive control (0) as mean with error of the mean in FIG. 11.
# [2] = test system: MDA-MB-231-MENA^INV cells; assay: Matrigel invasion chamber assay (cell invasion and chemotaxis towards EGF); type: cell-based, human; details: 18 hours
# Experimental: Addition of MENA kinase inhibitors to cells grown in fully supplemented medium reduce the capability of the breast cancer cell line to migrate in the wound healing assay (panels (c)-(h)). Panel (a) represents the wound size at the start of treatment. Cells that were cultured overnight in fully supplemented medium without drug (panel (b)) were able to close 50% of the wound. […] The ability of the various MENA kinase inhibitors described above to inhibit […] tumor cell invasion was tested using the BioCoatTM Matrigel® invasion chamber assay (Corning, Tewksbury, Mass.). […] Inserts were transferred to wells containing basal media (negative control) and the chemoattractant EGF with or without each of the MENA kinase inhibitors. After 18 hours cells that invaded the lower cell surface of the membrane were fixed, stained and evaluated by quantitative immunostaining using imageJ software.
# [3] = test system: MDA-MB-231-MENA^INV cells; assay: Wound healing cell migration assay; type: cell-based, human; details: 18 hours, fully supplemented medium, without drug 50%
# Experimental: MENA kinase inhibitors block MENA-dependent cell migration in a wound-healing assay. The ability of the various MENA kinase inhibitors described above to block MENA-dependent cell migration of MDA-MB-231-MENA^INV cells was assayed using the CySelect™ wound healing assay kit (Cell Biolabs, Inc., San Diego, Calif.). Following the manufacturer's protocol, cells were cultured in fibronectin coated wells until a monolayer formed around the wound insert. The insert was then removed and cells were cultured in the presence of inhibitor at the indicated concentrations in FIG. 9 in fully supplemented medium. After 18 hours the cells were fixed, stained, and evaluated for their capacity to close the wound generated by the insert by fluorescence microscopy.
# [4] = test system: MENA kinase-dependent phosphorylation of MENA^INV at Ser144; assay: Quantitative immunoblot of pSer125/pSer144 MENA/MENA^INV in TNF-alpha stimulated MVD7-MENA^INV cells; type: cell-based, mouse; details: FIG. 2
# Experimental: Anti-phospho-MENA antibodies specific for the Ser125/Ser144 phosphorylation site in MENA/MENA^INV were produced in animals injected with peptide containing mouse MENA residues 117-133 phosphorylated at Ser125 and conjugated to KLH (Covance Research Products, Denver, Pa.). Purification of pSer125MENA antibody was performed according to the protocol of Archuleta, et al. (Archuleta, Stutzke, Nixon, & Browning, Optimized protocol to make phospho-specific antibodies that work. Methods Mol. Biol. 717:69-88, 2011). Peptides used for purification (phosphorylated peptide: Ac-CKKGPTLPRQN(pS)QLPAQVQN (SEQ ID NO: 32) and dephosphorylated: […] (SEQ ID NO:32)) were prepared by Covance Research Products (BioLegend, San Diego, Calif.) and ThermoScientific, Grand Island, N.Y., respectively. Peptides were coupled to SulfoLink Coupling Resin Column (ThermoScientific) according to manufacturer's instructions. Sera were sequentially passed over column containing dephosphorylated peptide, and then over the column containing phosphorylated peptide. Antibodies bound to second column were eluted using IgG Elution buffer (ThermoScientific).
# Phosphorylation of MENA and or MENA isoforms is inhibited by MENA kinase inhibitors from the Ras-Raf-MEK-MAPK/ERK and PI3K-AKT/mTOR pathways. […] Phosphorylation was measured by quantitative immunoblot assays using MENA antibodies specific for the phosphorylation of MENA/MENA^INV at Ser125/Ser144 Cells were stimulated and the MENA kinase was activated through treatment with 10 ng/ml TNF-alpha. […]
# [5] = test system: HSP27 Ser82 phosphorylation site; assay: Mass spec phosphoproteomic analysis of MAPKAPK2/MK2-dependent phosphorylation; type: cell-based; details: doxorubicin treated cells
# From the text: (§1) The present invention is also based in part on the discovery that the peptide sequence proximal to the serine 125 (Ser125) phosphorylation site of MENA and the equivalent serine 144 (Ser144) phosphorylation site of MENA^INV are potent substrates of the MAPKAPK2/MK2 kinase. Replacement of Ser125 in MENA and or Ser144 in MENA^INV with a non-phosphorylable amino acid changes the peptide substrates to effective peptide inhibitors of the MAPKAPK2/MK2 kinase. […] In doxorubicin treated cells the MENA Ser125 phosphorylation site becomes more heavily phosphorylated (˜8× increase) than the HSP27 Ser82 phosphorylation site (˜2.5× increase). The Ser125/Ser144 serine residue was replaced with a non-phosphorylatable glycine residue to convert the MENA/MENA^INV substrate peptides into effective MENA kinase inhibitors.
# [6] = test system: MENA Ser125 phosphorylation site; assay: as above; type: cell-based; details: doxorubicin treated cells
# From the text: as §1
# MAPKAPK2/MK2 = MAPKAPK2/MK2 (Homo sapiens, UniProt P49137); details: cited from earlier work
# MAPKAPK2/MK2, sequence (P49137 whole entry): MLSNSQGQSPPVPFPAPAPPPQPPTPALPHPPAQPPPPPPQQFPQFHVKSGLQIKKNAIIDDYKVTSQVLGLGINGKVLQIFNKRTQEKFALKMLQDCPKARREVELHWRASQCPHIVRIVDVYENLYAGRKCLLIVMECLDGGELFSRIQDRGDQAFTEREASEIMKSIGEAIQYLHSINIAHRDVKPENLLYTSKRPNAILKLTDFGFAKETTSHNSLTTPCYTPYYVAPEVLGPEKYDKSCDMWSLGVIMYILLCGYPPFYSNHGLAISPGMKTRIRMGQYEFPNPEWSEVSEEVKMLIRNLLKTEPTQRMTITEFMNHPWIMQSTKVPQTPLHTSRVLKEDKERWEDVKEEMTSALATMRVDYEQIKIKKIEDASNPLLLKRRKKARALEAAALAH
Molecule,MENA-dependent fibronectin fibrillogenesis phenotype compared to the MENA-null control (MVD7-MENA^INV cells),MENA-dependent migration/chemotaxis phenotype (cells migrated through fibronectin coated membrane towards EGF) ([1]; 10 uM),relative number of cells that invade through Matrigel insert membranes towards EGF ([2]; 10 uM),wound closure ([3]; 10 uM) [%],level of phosphorylated MENA^INV ([4]; inhibitor at 1 uM),also measured
"O=c1cc(N2CCOCC2)oc2c(-c3ccccc3)cccc12 [LY294002, 2-morpholin-4-yl-8-phenylchromen-4-one]",significantly reduced,significantly reverse,significantly reduce,15,,
"CC(C)(C)Cn1c(N)nc2ccc(-c3[nH]c(C(C)(C)C)nc3-c3ccc(F)cc3)nc21.CS(=O)(=O)O [LY2228820, 5-[2-tert-butyl-4-(4-fluorophenyl)-1H-imidazol-5-yl]-3-(2,2-dimethylpropyl)imidazo[4,5-b]pyridin-2-amine; methanesulfonic acid]",,significantly reverse,significantly reduce,20,significantly reduce,
"O=C(NOC[C@H](O)CO)c1ccc(F)c(F)c1Nc1ccc(I)cc1F [PD0325901, N-[(2R)-2,3-dihydroxypropoxy]-3,4-difluoro-2-[(2-fluoro-4-iodophenyl)amino]-benzamide]",significantly reduced,,,,significantly reduce,MENA-dependent migration/chemotaxis phenotype (cells migrated through fibronectin coated membrane towards EGF) ([1]; 1 uM): significantly reverse; relative number of cells that invade through Matrigel insert membranes towards EGF ([2]; 1 uM): significantly reduce; wound closure ([3]; 1 uM): 15%
"Cc1ccc(-c2ccc3c(ccc4sc5c(c43)NC[C@@H](C)NC5=O)n2)cn1.O [PF-3644022, (10R)-9,10,11,12-tetrahydro-10-methyl-3-(6-methyl-3-pyridinyl)-8H-[1,4]diazepino[5′,6′:4,5]thieno[3,2-f]quinolin-8-one hydrate]",,significantly reverse,significantly reduce,10,,level of phosphorylated MENA^INV ([4]; inhibitor at 10 uM): significantly reduce
COc1cccc2c1C(=O)c1c(O)c3c(c(O)c1C2=O)C[C@@](O)(C(=O)CO)C[C@@H]3O[C@H]1C[C@H](N)[C@H](O)[C@H](C)O1 [doxorubicin],,,,,,increase in phosphorylation of HSP27 Ser82 site [5]: ~2.5 ×; increase in phosphorylation of MENA Ser125 site [6]: ~8 ×
KKKALHRQLGVAA (MAPKAPK2/MK2 inhibitor derived from HSP25),significantly reduced,,,,,"MENA-dependent fibronectin fibrillogenesis phenotype (MVD7-MENA^INV cells; increasing concentrations, 100 and 300 uM, 4 hours): Dose-dependent reductions; MENA-dependent migration/chemotaxis phenotype (cells migrated through fibronectin coated membrane towards EGF) ([1]; 100 uM): significantly reverse; MENA-dependent migration/chemotaxis phenotype (cells migrated through fibronectin coated membrane towards EGF) ([1]; 300 uM): significantly reverse; relative number of cells that invade through Matrigel insert membranes towards EGF ([2]; 100 uM): significantly reduce; relative number of cells that invade through Matrigel insert membranes towards EGF ([2]; 300 uM): significantly reduce; wound closure ([3]; 300 uM): 15%; inhibition of MAPKAPK2/MK2 (MAPKAPK2/MK2): potent inhibitor"
